# In patent US6914045B2, “Glycopeptide antibiotics” (Wyeth Holdings Corporation, priority 2001, dated 2005):
# Numbered stars: 1 amine (or outer) side, 2 acyl side, 3 side chain; on linkers, the order of the positions; unused ones are H or OH. Square brackets hold non-standard residues; d marks the D form. Peptide text beside a SMILES is read from it. * marks the point of attachment. ξ: configuration not given here. X1 = N=C1NCC(C(O)C(N[*:1])C(=O)[*:2])N1C1OC(CO)C(O)C(O)C1O; ξEnduracididine(βξ-OH,4'ξ) = N=C1NCC(C(O)C(N)C(=O)O)N1; X2 = OCC1OC(OC2C(CO)OC(*)C(O)C2O)C(O)C(O)C1O; ξCha(3ξ-Me) = CC(C1CCCCC1)C(N)C(=O)O
# Legend:
# Test in all cases: in vitro antibacterial evaluation, MIC by broth dilution
# Assay type in all cases: cell-based
# [1] = test system: Enterococcus sp.; conditions: broth dilution, 18 hours at 35° C.; for MIC Enterococcus faecalis (ATCC 29212): strain ATCC 29212; for MIC Enterococcus faecalis (GC 2242): strain GC 2242; for MIC Enterococcus faecium (GC 2243): strain GC 2243; for MIC Enterococcus faecalis (GC 2691): strain GC 2691; for MIC Enterococcus faecalis (GC 3059): strain GC 3059; for MIC Enterococcus faecalis (GC 4552): strain GC 4552; for MIC Enterococcus faecalis (GC 4553): strain GC 4553; for MIC Enterococcus faecalis (GC 4554): strain GC 4554; for MIC Enterococcus faecium (GC 4556): strain GC 4556; for MIC Enterococcus faecium (GC 4557): strain GC 4557; for MIC Enterococcus avium (GC 4558): strain GC 4558; for MIC Enterococcus faecalis (GC 6189): strain GC 6189
# Method: (§1) Methods for in vitro Antibacterial Evaluation (Table 1)
# (§2) The minimum inhibitory concentration (MIC), the lowest concentration of the antibiotic which inhibits growth of the test organism, is determined by the broth dilution method using Muller-Hinton II […] (Baltimore Biological Laboratories) following the recommendations of the National Committee for Clinical Laboratory Standards [Methods for dilution antimicrobial susceptibility tests for bacteria that grow aerobically, approved standard M7-A2, National Committee for Clinical Laboratory Standards, Villanova, Pa.].
# (§3) An inoculum level of 5×10^5 CFU/mL, and a range of antibiotic concentrations (64-0.06 μg/mL) is used. […] The test organisms include a spectrum of Gram-positive bacteria comprised of Staphylococcus sp., Streptococcus sp. and Enterococcus sp. These organisms include recent clinical isolates that are resistant to methicillin, penicillin and/or vancomycin.
# [2] = test system: Staphylococcus sp.; conditions: broth dilution, 18 hours at 35° C.; for MIC Staphylococcus aureus (ATCC 29213): strain ATCC 29213; for MIC Staphylococcus aureus (GC 1131): strain GC 1131; for MIC Staphylococcus aureus (GC 3051): strain GC 3051; for MIC Staphylococcus aureus (GC 3053): strain GC 3053; for MIC Staphylococcus aureus (GC 4541): strain GC 4541; for MIC Staphylococcus aureus (GC 4542): strain GC 4542; for MIC Staphylococcus aureus-SMITH (GC 4543): strain GC 4543; for MIC Staphylococcus aureus (GC 4544): strain GC 4544; for MIC Staphylococcus aureus (GC 4545): strain GC 4545; for MIC Staphylococcus haemolyticus (GC 4546): strain GC 4546; for MIC Coagulase Negative Staphylococcus (GC 4547): strain GC 4547; for MIC Coagulase Negative Staphylococcus (GC 4548): strain GC 4548; for MIC Coagulase Negative Staphylococcus (GC 4549): strain GC 4549; for MIC Coagulase Negative Staphylococcus (GC 4551): strain GC 4551
# Method: as §1, §2, §3
# [3] = test system: Streptococcus sp.; conditions: broth dilution, 18 hours at 35° C.; for MIC Streptococcus pneumoniae (ATCC 6301): strain ATCC 6301; for MIC Streptococcus pneumoniae (GC 1894): strain GC 1894; for MIC Streptococcus pyogenes (GC 4563): strain GC 4563; for MIC Streptococcus agalactiae (GC 4564): strain GC 4564; for MIC Streptococcus pneumoniae (GC 4565): strain GC 4565
# Method: as §1, §2, §3
# [4] = test system: Escherichia coli; conditions: broth dilution, 18 hours at 35° C.; for MIC Escherichia coli (ATCC 25922): strain ATCC 25922; for MIC Escherichia coli (GC 4559): strain GC 4559; for MIC Escherichia coli (GC 4560): strain GC 4560
# Method: as §2, §3
compound,measurement,setting,value
"CC(C1CCCCC1)C1NC(=O)CNC(=O)C(CO)NC(=O)C(C(O)C2CNC(=N)N2C2OC(CO)C(O)C(O)C2O)NC(=O)C(C(O)C2CNC(=N)N2)NC(=O)C(Cc2ccc(OC3OC(CO)C(OC4OC(CO)C(O)C(O)C4O)C(O)C3O)cc2)NC1=O (stereo not drawn) [Example 51, Cyclo[3-cyclohexyl-2-aminobutanoyl-O-(4-O-hexopyranosylhexopyranosyl)tyrosyl-3-(2-iminoimidazolidin-4-yl)seryl-3-(3-hexopyranosyl-2-iminoimidazolidin-4-yl)-serylserylglycyl]] (cyclo(G[ξCha(3ξ-Me)]Y(X2)[ξEnduracididine(βξ-OH,4'ξ)][X1]S); configuration not given here)",MIC Enterococcus faecalis (ATCC 29212),[1],>64 µg/mL
same,MIC Enterococcus faecalis (GC 2242),[1],64 µg/mL
same,MIC Enterococcus faecium (GC 2243),[1],>64 µg/mL
same,MIC Enterococcus faecalis (GC 2691),[1],>64 µg/mL
same,MIC Enterococcus faecalis (GC 3059),[1],>64 µg/mL
same,MIC Enterococcus faecalis (GC 4552),[1],>64 µg/mL
same,MIC Enterococcus faecalis (GC 4553),[1],>64 µg/mL
same,MIC Enterococcus faecalis (GC 4554),[1],>64 µg/mL
same,MIC Enterococcus faecium (GC 4556),[1],>64 µg/mL
same,MIC Enterococcus faecium (GC 4557),[1],16 µg/mL
same,MIC Enterococcus avium (GC 4558),[1],64 µg/mL
same,MIC Enterococcus faecalis (GC 6189),[1],>64 µg/mL
same,MIC Staphylococcus aureus (ATCC 29213),[2],32 µg/mL
same,MIC Staphylococcus aureus (GC 1131),[2],32 µg/mL
same,MIC Staphylococcus aureus (GC 3051),[2],32 µg/mL
same,MIC Staphylococcus aureus (GC 3053),[2],64 µg/mL
same,MIC Staphylococcus aureus (GC 4541),[2],32 µg/mL
same,MIC Staphylococcus aureus (GC 4542),[2],32 µg/mL
same,MIC Staphylococcus aureus-SMITH (GC 4543),[2],32 µg/mL
same,MIC Staphylococcus aureus (GC 4544),[2],32 µg/mL
same,MIC Staphylococcus aureus (GC 4545),[2],32 µg/mL
same,MIC Staphylococcus haemolyticus (GC 4546),[2],32 µg/mL
same,MIC Coagulase Negative Staphylococcus (GC 4547),[2],16 µg/mL
same,MIC Coagulase Negative Staphylococcus (GC 4548),[2],16 µg/mL
same,MIC Coagulase Negative Staphylococcus (GC 4549),[2],4 µg/mL
same,MIC Coagulase Negative Staphylococcus (GC 4551),[2],64 µg/mL
same,MIC Streptococcus pneumoniae (ATCC 6301),[3],8 µg/mL
same,MIC Streptococcus pneumoniae (GC 1894),[3],4 µg/mL
same,MIC Streptococcus pyogenes (GC 4563),[3],8 µg/mL
same,MIC Streptococcus agalactiae (GC 4564),[3],16 µg/mL
same,MIC Streptococcus pneumoniae (GC 4565),[3],8 µg/mL
same,MIC Escherichia coli (ATCC 25922),[4],>64 µg/mL
same,MIC Escherichia coli (GC 4559),[4],64 µg/mL
same,MIC Escherichia coli (GC 4560),[4],8 µg/mL
CC(c1ccccc1)C1NC(=O)CNC(=O)C(CO)NC(=O)C(C(O)C2CNC(=N)N2C2OC(CO)C(O)C(O)C2O)NC(=O)C(C(O)C2CNC(=N)N2)NC(=O)C(Cc2ccc3oc(SCC(=O)c4ccc(Cl)cc4)nc3c2)NC1=O (centres unmarked) [Example 49],MIC Enterococcus faecalis (ATCC 29212),[1],16 µg/mL
same,MIC Enterococcus faecalis (GC 2242),[1],16 µg/mL
same,MIC Enterococcus faecium (GC 2243),[1],8 µg/mL
same,MIC Enterococcus faecalis (GC 2691),[1],16 µg/mL
same,MIC Enterococcus faecalis (GC 3059),[1],32 µg/mL
same,MIC Enterococcus faecalis (GC 4552),[1],2 µg/mL
same,MIC Enterococcus faecalis (GC 4553),[1],4 µg/mL
same,MIC Enterococcus faecalis (GC 4554),[1],16 µg/mL
same,MIC Enterococcus faecium (GC 4556),[1],8 µg/mL
same,MIC Enterococcus faecium (GC 4557),[1],2 µg/mL
same,MIC Enterococcus avium (GC 4558),[1],4 µg/mL
same,MIC Enterococcus faecalis (GC 6189),[1],16 µg/mL
same,MIC Staphylococcus aureus (ATCC 29213),[2],8 µg/mL
same,MIC Staphylococcus aureus (GC 1131),[2],4 µg/mL
same,MIC Staphylococcus aureus (GC 3051),[2],4 µg/mL
same,MIC Staphylococcus aureus (GC 3053),[2],4 µg/mL
same,MIC Staphylococcus aureus (GC 4541),[2],4 µg/mL
same,MIC Staphylococcus aureus (GC 4542),[2],4 µg/mL
same,MIC Staphylococcus aureus-SMITH (GC 4543),[2],2 µg/mL
same,MIC Staphylococcus aureus (GC 4544),[2],4 µg/mL
same,MIC Staphylococcus aureus (GC 4545),[2],2 µg/mL
same,MIC Staphylococcus haemolyticus (GC 4546),[2],1 µg/mL
same,MIC Coagulase Negative Staphylococcus (GC 4547),[2],4 µg/mL
same,MIC Coagulase Negative Staphylococcus (GC 4548),[2],2 µg/mL
same,MIC Coagulase Negative Staphylococcus (GC 4549),[2],1 µg/mL
same,MIC Coagulase Negative Staphylococcus (GC 4551),[2],4 µg/mL
same,MIC Streptococcus pneumoniae (ATCC 6301),[3],8 µg/mL
same,MIC Streptococcus pneumoniae (GC 1894),[3],8 µg/mL
same,MIC Streptococcus pyogenes (GC 4563),[3],2 µg/mL
same,MIC Streptococcus agalactiae (GC 4564),[3],4 µg/mL
same,MIC Streptococcus pneumoniae (GC 4565),[3],8 µg/mL
same,MIC Escherichia coli (ATCC 25922),[4],16 µg/mL
same,MIC Escherichia coli (GC 4559),[4],8 µg/mL
same,MIC Escherichia coli (GC 4560),[4],4 µg/mL
